{"source": "patent US20200085767A1", "about": "“Methods for Treating Hydrocephalus” (Indian University Research and Technology Corporation, priority 2016, published 2020)", "system": "PCP-R choroid plexus cell line", "experiment": "Ussing chamber electrophysiology of TRPV4 agonist-stimulated transepithelial ion transport (short-circuit current and conductance)", "format": "cell-based, porcine", "description": "In order to follow transepithelial ion movement, Ussing chamber electrophysiological techniques were used. The choroid plexus model is a high resistance, continuous cell line of porcine choroid plexus epithelial cells grown on permeable supports. […] The cells were mounted on electrophysiological apparatuses for analysis of transepithelial ion flux in response to inhibitory or stimulatory reagents. Filters were excised, mounted in a Ussing chamber, and connected to a DVC-1000 Voltage/Current Clamp with voltage and current electrodes on either side of the membrane. Each half of the chamber contained a tapered fluid compartment with fittings for voltage electrodes (close to the epithelial membrane) and current electrodes (at the opposite end of the chamber). The fluid chamber was water jacketed to maintain a constant temperature (37° C.). The cells were bathed in serum-free media. Media were circulated in the chambers and oxygenated by means of a 5% CO2/O2 gas lift. The spontaneous transepithelial potential difference was measured and clamped to zero, and the resultant short-circuit (SCC) was monitored continuously as a measurement of net transepithelial ion flux. As per convention, a negative deflection in the SCC was either cation secretion (from blood to CSF) or anion absorption (CSF to blood). Transepithelial resistance (TER) was recorded every 200 seconds throughout each experiment by applying a 2 mV pulse and using the resulting deflection in the SCC to calculate the TER by Ohm's law. Conductances were calculated from the change in current during the voltages pulses. Specifically conductance is the change in current divided by the magnitude of the imposed voltage. In all cases, the graphs shown in each panel represent a series of control and experimental cultures that were grown and analyzed in parallel.\nAfter the basal current was stabilized, effectors were added to one or both sides of polarized monolayer as dictated by the physiological situation.\nFurther, conductance is a measurement of the permeability of the tissue to water and electrolytes. So, as the conductance goes up, one would expect greater ion and fluid permeability across the choroid plexus which is a barrier epithelium.\nThe same methods were used in this Example as in Example 1.", "note": "Entries after “also recorded” stand apart in the source; their conditions may differ."}
{"smiles": "NCCC(Oc1ccc(C(F)(F)F)cc1)c1ccccc1", "note": "(stereo not shown) [norfluoxetine]", "values": [{"measurement": "GSK1016790A-stimulated transepithelial potassium secretion in the direction of the CSF (short-circuit current, SCC)", "setting": "cells pre-treated from time -10 to 0 minutes, GSK1016790A added at 0 minutes", "result": "effective at inhibiting the TRPV4-stimulated ion transport; also recorded: completely inhibited"}, {"measurement": "TRPV4 agonist-induced increase in conductance (permeability)", "setting": "pre-treatment before the TRPV4 agonist GSK1016790A", "result": "blocked this increased permeability"}]}
{"smiles": "CC(C)C[C@H](NC(=O)c1cc2ccccc2s1)C(=O)N1CCN(C(=O)[C@H](CO)NS(=O)(=O)c2ccc(Cl)cc2Cl)CC1", "note": "[GSK1016790A]", "values": [{"measurement": "change in conductance", "setting": "agonist alone", "result": "large increase in the conductance"}, {"measurement": "transepithelial ion transport response measured as short-circuit current (SCC)", "setting": "agonist alone, added at time 0 minutes", "result": "consistent with cation secretion into the CSF"}]}
